Numbers after ± are expanded uncertainties.
Experiments:
[1] = 298.15 K, Liquid
[2] = refractive index (Na D-line) (dimensionless); conditions: 298.15 K; 101.33 kPa; Liquid; Standard Abbe refractometry
[3] = mn = molality of the nth substance listed, in mol/kg; conditions: 298.15 K, 101 kPa, Liquid; for viscosity: Capillary tube (Ostwald / Ubbelohde) method; for mass density: Vibrating tube method

For CN(C)C=O [dimethylformamide], the mass density ([1]; 101 kPa, Vibrating tube method) was 944 ± 0.46 kg/m3, the viscosity ([1]; 101.33 kPa, Capillary tube (Ostwald / Ubbelohde) method) was 0.805 ± 0.008 mPa·s and the refractive index [2] was 1.4281 ± 0.0004.

With Oc1ccccc1C=Nc1ccccc1N=Cc1ccccc1O [2,2'-[1,2-phenylenebis(nitrilomethylidyne)]bis-phenol] + CN(C)C=O the viscosity ([3]; m1 = 0.01) was 0.802 ± 0.008 mPa·s, the viscosity ([3]; m1 = 0.0302) was 0.818 ± 0.008 mPa·s and the viscosity ([3]; m1 = 0.0505) was 0.833 ± 0.008 mPa·s. For the same compound, the viscosity ([3]; m1 = 0.0698) was 0.847 ± 0.008 mPa·s, the viscosity ([3]; m1 = 0.0851) was 0.859 ± 0.008 mPa·s and the viscosity ([3]; m1 = 0.1098) was 0.878 ± 0.008 mPa·s. The viscosity ([3]; m1 = 0.1268) was 0.89 ± 0.008 mPa·s, the viscosity ([3]; m1 = 0.1507) was 0.905 ± 0.008 mPa·s and the viscosity ([3]; m1 = 0.1705) was 0.919 ± 0.008 mPa·s. It also gave a mass density ([3]; m1 = 0.0295) of 946.01 ± 0.46 kg/m3, a mass density ([3]; m1 = 0.051) of 947.47 ± 0.46 kg/m3 and a mass density ([3]; m1 = 0.0697) of 948.75 ± 0.46 kg/m3. The mass density ([3]; m1 = 0.0894) was 950.08 ± 0.46 kg/m3, the mass density ([3]; m1 = 0.1106) was 951.51 ± 0.46 kg/m3 and the mass density ([3]; m1 = 0.1299) was 952.82 ± 0.46 kg/m3. The mass density ([3]; m1 = 0.1465) was 953.94 ± 0.46 kg/m3, the mass density ([3]; m1 = 0.1701) was 955.51 ± 0.46 kg/m3 and the mass density ([3]; m1 = 0.1898) was 956.83 ± 0.46 kg/m3.

CCCCCCn1cc[n+](C)c1.[Br-] [3-hexyl-1-methyl-1H-imidazolium bromide] + CN(C)C=O showed a mass density ([3]; m1 = 0.0245) of 945.76 ± 0.46 kg/m3, a mass density ([3]; m1 = 0.0738) of 948.9 ± 0.46 kg/m3 and a mass density ([3]; m1 = 0.1205) of 951.72 ± 0.46 kg/m3.

CCCCCn1cc[n+](C)c1.[Br-] [1-pentyl-3-methylimidazolium bromide] + CN(C)C=O gave a mass density ([3]; m1 = 0.026) of 947.47 ± 0.46 kg/m3, a mass density ([3]; m1 = 0.0508) of 949.26 ± 0.46 kg/m3 and a mass density ([3]; m1 = 0.0747) of 950.79 ± 0.46 kg/m3.

With CCC[n+]1ccn(C)c1.[Br-] [1-methyl-3-propylimidazolium bromide] + CN(C)C=O the mass density ([3]; m1 = 0.03) was 946.19 ± 0.46 kg/m3, the mass density ([3]; m1 = 0.0789) was 949.63 ± 0.46 kg/m3 and the mass density ([3]; m1 = 0.122) was 952.52 ± 0.46 kg/m3.

CCCCn1cc[n+](C)c1.[Br-] [1-butyl-3-methylimidazolium bromide] + CN(C)C=O showed a mass density ([3]; m1 = 0.1012) of 951.01 ± 0.46 kg/m3, a mass density ([3]; m1 = 0.1527) of 954.4 ± 0.46 kg/m3 and a mass density ([3]; m1 = 0.197) of 957.2 ± 0.46 kg/m3.
